Assay results as given in US20120082658A1, “Methods for the Treatment of Allergic Diseases” (VentiRx Pharmaceuticals, Inc., priority 2010, published 2012).
Where two headings read alike, the source gives them in different places.

System: human peripheral blood mononuclear cells (PBMCs)
Assay: Cytokine production in isolated human PBMCs
Type: cell-based
Conditions: for EC50: Homo sapiens, PBMC
Method: Preclinical studies were performed with VTX-378, the active pharmaceutical ingredient in VTX-1463. The specificity of VTX-378 for human TLR8 relative to other TLRs was assessed in transfected Human Embryonic Kidney 293 (HEK293) cells engineered to express individual TLRs (2-9) via transfection, and assessed using an NF-κB driven reporter system. […] The pharmacologic effects of VTX-378 were characterized in vitro using isolated human peripheral blood mononuclear cells (PBMCs).

## CC(C)Cn1cnc2c(N)nc3ccccc3c21 [Imiquimod, imiquimod, reference compound]
Analyte IL-10, read-out: EC50, IL-10 production
  EC50: 17 µM
Analyte IL-12p40, read-out: EC50, IL-12p40 production
  EC50: 0.27 µM
Imiquimod 25 uM
  Mean Mediator Level ± SEM, IL-10: 59 ± 24 pg/mL
  Mean Mediator Level ± SEM, IL-12p40: 10.2 ± 3.5 pg/mL
  Mean Mediator Level ± SEM, IL-12p70: 0.6 ± 0.6 pg/mL
